# Test results published in US12264155B2, “Compounds, pharmaceutical compositions, and methods of preparing compounds and of their use as ATR kinase inhibitors” (Repare Therapeutics Inc., priority 2018, dated 2025).
# Target: ATR/ATRIP (Homo sapiens (Human), UniProt Q13535)
# Assay: ATR/ATRIP enzymatic assay (AlphaScreen, phosphorylation of p53)
# Details: read-out: ATR IC50; recombinant ATR/ATRIP 0.63 nM, 25 nM GST-p53, 3 μM ATP, 1 hour room temperature
# Description: Detection of ATR kinase activity utilized the AlphaScreen system to measure the phosphorylation of the substrate protein p53. […] Plates were incubated at room temperature in the dark for 4 hours and read on a BMG Polarstar using AlphaScreen dedicated filters. […] IC50 values were determined using a 4-parameter fit algorithm.
# Chain of ATR/ATRIP (Q13535 whole entry): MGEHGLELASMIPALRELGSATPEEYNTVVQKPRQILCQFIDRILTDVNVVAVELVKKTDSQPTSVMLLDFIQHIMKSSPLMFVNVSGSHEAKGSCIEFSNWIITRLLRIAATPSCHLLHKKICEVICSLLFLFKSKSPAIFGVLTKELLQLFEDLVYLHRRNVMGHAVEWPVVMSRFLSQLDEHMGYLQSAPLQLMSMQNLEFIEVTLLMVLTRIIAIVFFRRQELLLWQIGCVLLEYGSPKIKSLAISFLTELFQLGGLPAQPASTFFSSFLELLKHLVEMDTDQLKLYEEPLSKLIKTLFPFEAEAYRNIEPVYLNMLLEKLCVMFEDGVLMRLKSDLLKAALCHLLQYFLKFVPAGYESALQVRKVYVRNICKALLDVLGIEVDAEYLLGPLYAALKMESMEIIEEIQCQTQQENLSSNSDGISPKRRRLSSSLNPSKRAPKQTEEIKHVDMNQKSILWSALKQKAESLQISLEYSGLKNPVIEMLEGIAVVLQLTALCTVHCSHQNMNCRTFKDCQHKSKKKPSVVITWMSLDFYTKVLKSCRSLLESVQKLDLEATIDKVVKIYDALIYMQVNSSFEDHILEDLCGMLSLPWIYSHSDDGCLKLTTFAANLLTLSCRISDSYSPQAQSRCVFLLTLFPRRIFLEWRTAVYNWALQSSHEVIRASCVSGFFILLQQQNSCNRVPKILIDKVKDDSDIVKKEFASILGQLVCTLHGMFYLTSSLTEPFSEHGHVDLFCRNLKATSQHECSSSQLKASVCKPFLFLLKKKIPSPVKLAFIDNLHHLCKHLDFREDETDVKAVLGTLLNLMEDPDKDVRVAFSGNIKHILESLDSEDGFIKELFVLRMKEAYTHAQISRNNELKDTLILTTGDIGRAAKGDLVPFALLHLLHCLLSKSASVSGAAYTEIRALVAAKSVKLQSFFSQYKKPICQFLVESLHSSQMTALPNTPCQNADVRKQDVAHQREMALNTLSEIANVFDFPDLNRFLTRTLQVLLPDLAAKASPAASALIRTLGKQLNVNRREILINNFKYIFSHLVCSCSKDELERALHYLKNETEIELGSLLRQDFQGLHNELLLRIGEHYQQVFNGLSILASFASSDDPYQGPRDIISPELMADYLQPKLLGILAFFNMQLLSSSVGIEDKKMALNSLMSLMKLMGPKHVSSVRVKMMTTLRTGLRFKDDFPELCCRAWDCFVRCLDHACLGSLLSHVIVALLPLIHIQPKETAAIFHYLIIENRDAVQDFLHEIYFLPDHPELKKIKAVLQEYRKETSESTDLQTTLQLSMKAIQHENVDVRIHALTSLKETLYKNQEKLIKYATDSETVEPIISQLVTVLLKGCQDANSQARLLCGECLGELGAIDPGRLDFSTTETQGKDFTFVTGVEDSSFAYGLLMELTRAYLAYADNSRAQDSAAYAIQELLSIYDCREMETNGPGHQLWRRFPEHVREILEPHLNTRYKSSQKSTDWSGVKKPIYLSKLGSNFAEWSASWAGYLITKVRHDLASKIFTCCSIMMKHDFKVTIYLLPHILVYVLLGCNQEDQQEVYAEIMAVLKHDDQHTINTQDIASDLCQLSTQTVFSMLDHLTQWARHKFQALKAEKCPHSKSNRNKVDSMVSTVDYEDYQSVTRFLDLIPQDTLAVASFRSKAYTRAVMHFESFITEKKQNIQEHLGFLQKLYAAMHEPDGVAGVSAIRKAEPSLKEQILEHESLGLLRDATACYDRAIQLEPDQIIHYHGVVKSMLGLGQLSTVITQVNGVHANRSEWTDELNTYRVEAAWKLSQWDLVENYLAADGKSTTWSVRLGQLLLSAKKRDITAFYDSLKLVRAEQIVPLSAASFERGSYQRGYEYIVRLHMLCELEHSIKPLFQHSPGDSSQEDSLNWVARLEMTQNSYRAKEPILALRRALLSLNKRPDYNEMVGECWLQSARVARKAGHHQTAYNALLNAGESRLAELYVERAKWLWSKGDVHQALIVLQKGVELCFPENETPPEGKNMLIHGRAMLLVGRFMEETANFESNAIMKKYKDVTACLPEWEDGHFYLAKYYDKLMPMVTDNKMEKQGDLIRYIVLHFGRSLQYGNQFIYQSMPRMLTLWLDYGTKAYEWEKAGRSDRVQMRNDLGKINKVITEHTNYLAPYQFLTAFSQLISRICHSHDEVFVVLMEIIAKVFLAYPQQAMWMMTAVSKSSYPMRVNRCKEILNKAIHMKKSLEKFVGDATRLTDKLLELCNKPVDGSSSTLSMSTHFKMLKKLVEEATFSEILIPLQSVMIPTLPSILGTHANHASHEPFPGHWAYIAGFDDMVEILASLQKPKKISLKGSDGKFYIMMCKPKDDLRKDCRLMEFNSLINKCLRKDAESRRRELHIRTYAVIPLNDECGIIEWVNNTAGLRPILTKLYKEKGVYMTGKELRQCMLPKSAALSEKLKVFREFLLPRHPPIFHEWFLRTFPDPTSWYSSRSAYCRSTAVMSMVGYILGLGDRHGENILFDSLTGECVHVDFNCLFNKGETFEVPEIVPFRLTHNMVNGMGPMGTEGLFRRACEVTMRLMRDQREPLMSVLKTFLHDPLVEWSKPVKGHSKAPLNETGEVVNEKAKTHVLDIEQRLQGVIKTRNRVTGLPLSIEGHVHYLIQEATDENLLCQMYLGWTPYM
# Chain of ATR/ATRIP (Q8WXE1 whole entry partner): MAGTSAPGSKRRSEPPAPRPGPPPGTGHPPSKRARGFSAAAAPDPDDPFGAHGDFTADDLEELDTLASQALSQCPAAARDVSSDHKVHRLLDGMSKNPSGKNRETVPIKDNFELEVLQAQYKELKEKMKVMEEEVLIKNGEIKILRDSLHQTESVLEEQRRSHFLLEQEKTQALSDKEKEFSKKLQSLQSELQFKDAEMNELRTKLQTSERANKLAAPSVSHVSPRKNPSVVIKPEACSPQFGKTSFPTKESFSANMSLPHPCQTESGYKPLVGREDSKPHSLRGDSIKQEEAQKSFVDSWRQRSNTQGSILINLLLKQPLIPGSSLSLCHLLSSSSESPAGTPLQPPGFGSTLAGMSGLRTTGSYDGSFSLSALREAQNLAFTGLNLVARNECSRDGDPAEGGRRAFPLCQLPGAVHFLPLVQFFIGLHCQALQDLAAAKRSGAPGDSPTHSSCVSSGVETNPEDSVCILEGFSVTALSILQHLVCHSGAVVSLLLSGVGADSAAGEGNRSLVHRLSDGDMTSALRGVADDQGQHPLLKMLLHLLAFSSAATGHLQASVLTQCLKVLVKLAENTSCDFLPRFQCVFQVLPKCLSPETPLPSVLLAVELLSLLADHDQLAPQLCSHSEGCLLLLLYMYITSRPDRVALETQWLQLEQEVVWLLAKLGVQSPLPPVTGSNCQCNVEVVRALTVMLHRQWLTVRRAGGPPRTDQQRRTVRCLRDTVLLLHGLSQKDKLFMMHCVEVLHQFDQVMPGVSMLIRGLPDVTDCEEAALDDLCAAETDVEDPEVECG
row,Compound,IC50 [nM]
1,"C[C@@H]1COCCN1c1cc(C(C)(C)O)c2cnn(-c3cc[nH]n3)c2n1 [Compound 2, (R)-2-(6-(3-methylmorpholino)-1-(1H-pyrazol-3-yl)-1H-pyrazolo[3,4-b]pyridin-4-yl)propan-2-ol]",40
2,"C[C@@H]1COCCN1c1cc(C2(C#N)CCCCC2)c2cnn(-c3cc[nH]n3)c2n1 [Compound 5, (R)-1-(6-(3-methylmorpholino)-1-(1H-pyrazol-3-yl)-1H-pyrazolo[3,4-b]pyridin-4-yl)cyclohexane-1-carbonitrile]",3
3,"C[C@@H]1COCCN1c1cc(-c2ccccc2S(C)(=O)=O)c2ccn(-c3cc[nH]n3)c2n1 [Compound 6, (R)-3-methyl-4-(4-(2-(methylsulfonyl)phenyl)-1-(1H-pyrazol-3-yl)-1H-pyrrolo[2,3-b]pyridin-6-yl)morpholine]",425
4,C[C@@H]1COCCN1c1cc(C(C)(C)C#N)c2ccn(-c3cc[nH]n3)c2n1 [Compound 11],101
5,C[C@@H]1COCCN1c1cc(-c2ccncn2)c2ccn(-c3cc[nH]n3)c2n1 [Compound 13],1650
6,C[C@@H]1COCCN1c1cc(-c2ccncc2)c2ccn(-c3cc[nH]n3)c2n1 [Compound 15],1870
7,C[C@@H]1COCCN1c1cc(C(=O)N(C)Cc2ccccc2)c2ccn(-c3cc[nH]n3)c2n1 [Compound 19],540
8,C[C@@H]1COCCN1c1cc(-c2ccccc2[S+](C)[O-])c2ccn(-c3cc[nH]n3)c2n1 (some centres unmarked) [Compound 20],229
9,COc1ccc(-c2cc(N3CCOC[C@H]3C)nc3c2c(C)cn3-c2cc[nH]n2)cn1 [Compound 21],828
10,C[C@@H]1COCCN1c1cc(C(N)=O)c2cnn(-c3cc[nH]n3)c2n1 [Compound 23],264
11,C[C@@H]1COCCN1c1cc(C2(C#N)CCCC2)c2cnn(-c3cc[nH]n3)c2n1 [Compound 28],4
12,C[C@@H]1COCCN1c1cc(C2(C#N)CC2)c2ccn(-c3cc[nH]n3)c2n1 [Compound 29],580
13,COC(C)(C)c1cc(N2CCOC[C@H]2C)nc2c1ccn2-c1cc[nH]n1 [Compound 30],284
14,CC(C)c1cc(N2CCOC[C@H]2C)nc2c1ccn2-c1cc[nH]n1 [Compound 31],1420

# More lines, in order of falling IC50, values ahead:
row,IC50 [nM],Compound
1,1940,C[C@@H]1COCCN1c1cc(C(=O)N2CCOCC2)c2ccn(-c3cc[nH]n3)c2n1 [Compound 18]
2,1600,C[C@@H]1COCCN1c1cc(C(C)(C)O)c2ccn(-c3cc[nH]n3)c2n1 [Compound 10]
3,1520,COc1ccc(-c2cc(N3CCOC[C@H]3C)nc3c2ccn3-c2cc[nH]n2)cn1 [Compound 16]
4,1210,C[C@@H]1COCCN1c1cc(Nc2cccnc2)c2ccn(-c3cc[nH]n3)c2n1 [Compound 17]
5,1150,Cc1ccc(-c2cc(N3CCOC[C@H]3C)nc3c2ccn3-c2cc[nH]n2)nn1 [Compound 14]
6,876,C[C@@H]1COCCN1c1cc(N(C)c2cccnc2)c2ccn(-c3cc[nH]n3)c2n1 [Compound 22]
7,403,"Cc1cn(-c2cc[nH]n2)c2nc(N3CCOC[C@H]3C)cc(C(C)(C)C#N)c12 [Compound 7, (R)-2-methyl-2-(3-methyl-6-(3-methylmorpholino)-1-(1H-pyrazol-3-yl)-1H-pyrrolo[2,3-b]pyridin-4-yl)propanenitrile]"
8,379,C[C@@H]1COCCN1c1cc(C(C)(C)C(N)=O)c2ccn(-c3cc[nH]n3)c2n1 [Compound 12]
9,135,C[C@@H]1COCCN1c1cc(C2(C#N)CCC2)c2cnn(-c3cc[nH]n3)c2n1 [Compound 27]
10,56,"C[C@@H]1COCCN1c1cc(C(C)(C)C(N)=O)c2cnn(-c3cc[nH]n3)c2n1 [Compound 4, (R)-2-methyl-2-(6-(3-methylmorpholino)-1-(1H-pyrazol-3-yl)-1H-pyrazolo[3,4-b]pyridin-4-yl)propanamide]"
11,37,Cc1ccncc1-c1cc(N2CCOC[C@H]2C)nc2c1ccn2-c1cc[nH]n1 [Compound 9]
12,6,C[C@@H]1COCCN1c1cc(C(C)(C)C#N)c2cnn(-c3cc[nH]n3)c2n1 [Compound 24]
